Measurements as given in PubChem BioAssay (NCI).
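The compound was tested at five concentrations on cells cultured in 96-well plates, with a 48-hour exposure period. At the GI50, growth is halved. TGI denotes the concentration required for complete inhibition of growth.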

Legend:
Test in all cases: NCI anticancer screen, dose series, 48 h
[1] = system: MDA-MB-231 breast
[2] = system: SR leukemia
[3] = system: SNB-19 CNS
[4] = system: PC-3 prostate
[5] = system: T-47D breast
[6] = system: ACHN renal
[7] = system: HCT-116 colon
[8] = system: KM12 colon
[9] = system: K-562 leukemia
[10] = system: MOLT-4 leukemia
[11] = system: CCRF-CEM leukemia
[12] = system: A498 renal
[13] = system: HL-60(TB) leukemia
[14] = system: RPMI-8226 leukemia
[15] = system: UO-31 renal
[16] = system: MDA-N
[17] = system: BT-549 breast
[18] = system: NCI-H226 lung
[19] = system: SN12C renal
[20] = system: DU-145 prostate
[21] = system: NCI/ADR-RES ovarian
[22] = system: OVCAR-3 ovarian
[23] = system: NCI-H460 lung
[24] = system: SNB-75 CNS
[25] = system: 786-0 renal
[26] = system: SW-620 colon
[27] = system: OVCAR-5 ovarian
[28] = system: HOP-62 NSCLC
[29] = system: OVCAR-4 ovarian
[30] = system: SK-OV-3 ovarian
[31] = system: SK-MEL-28 melanoma
[32] = system: HS 578T breast
[33] = system: TK-10 renal
[34] = system: HCC-2998 colon
[35] = system: UACC-62 melanoma
[36] = system: SK-MEL-5 melanoma
[37] = system: LOX IMVI melanoma
[38] = system: SF-539 CNS
[39] = system: OVCAR-8 ovarian
[40] = system: MCF7 breast
[41] = system: NCI-H23 lung
[42] = system: HOP-92 NSCLC
[43] = system: SK-MEL-2 melanoma
[44] = system: SF-268 CNS
[45] = system: M14 melanoma
[46] = system: U251 CNS
[47] = system: A549 NSCLC
[48] = system: EKVX NSCLC
[49] = system: CAKI-1 renal
[50] = system: SF-295 CNS
[51] = system: UACC-257 melanoma
[52] = system: RXF 393 renal
[53] = system: HT29 colon
[54] = system: COLO 205 colon
[55] = system: IGROV1 ovarian
[56] = system: HCT-15 colon
[57] = system: MDA-MB-435
[58] = system: MALME-3M melanoma

c1ccc2c(c1)Nc1cccc3c1c-2nc1ccccc13
TGI [1]: 2.69 µM
TGI [2]: 4.83 µM
TGI [3]: > 100 µM
TGI [4]: 2.43 µM
TGI [5]: 5.09 µM
TGI [6]: 2.01 µM
TGI [7]: 1.79 µM
TGI [8]: 3.44 µM
TGI [9]: 2.92 µM
TGI [10]: 1.78 µM
TGI [11]: 4.81 µM
TGI [12]: > 100 µM
TGI [13]: 3.3 µM
TGI [14]: 3.48 µM
TGI [15]: 2.83 µM
TGI [16]: 2.05 µM
TGI [17]: > 100 µM
TGI [18]: > 100 µM
TGI [19]: 2.79 µM
TGI [20]: 2.6 µM

COc1cc2c3c(n(CCCN(CCO)CCO)c(=O)c2cc1OC)-c1cc2c(cc1C3=O)OCO2
GI50 [21]: 0.117 µM
GI50 [1]: 0.583 µM
TGI [1]: 2.42 µM
GI50 [22]: 0.062 µM
TGI [22]: 0.295 µM
GI50 [23]: < 0.01 µM
TGI [23]: 2.28 µM
GI50 [24]: 0.0811 µM
TGI [24]: 2.19 µM
GI50 [2]: < 0.01 µM
TGI [2]: < 0.01 µM
GI50 [3]: 0.603 µM
TGI [3]: > 35.5 µM
GI50 [25]: < 0.01 µM
TGI [25]: 0.0646 µM
GI50 [26]: < 0.01 µM
TGI [26]: 1.71 µM
TGI [4]: 2.12 µM
GI50 [5]: 0.144 µM
TGI [5]: > 22.7 µM
GI50 [27]: 0.209 µM
TGI [27]: 1.31 µM
GI50 [28]: < 0.01 µM
GI50 [29]: 0.842 µM
TGI [29]: 3.61 µM
GI50 [30]: 2.22 µM
TGI [30]: 34.9 µM
GI50 [6]: < 0.01 µM
TGI [6]: 0.0855 µM
GI50 [31]: 2.27 µM
TGI [31]: 26.6 µM
GI50 [32]: 1.66 µM
TGI [32]: 13 µM
GI50 [33]: 1.23 µM
TGI [33]: 6.02 µM
GI50 [7]: < 0.01 µM
TGI [7]: 0.0679 µM
GI50 [34]: < 0.01 µM
TGI [34]: < 0.01 µM
GI50 [35]: < 0.01 µM
TGI [35]: 0.503 µM
GI50 [36]: < 0.0159 µM
TGI [36]: 0.413 µM
GI50 [37]: < 0.01 µM
TGI [37]: 0.158 µM
GI50 [38]: < 0.01 µM
TGI [38]: < 0.0264 µM
GI50 [39]: 0.221 µM
TGI [39]: 6.01 µM
GI50 [40]: < 0.01 µM
TGI [40]: > 24.7 µM
GI50 [41]: < 0.01 µM
TGI [41]: 0.139 µM
TGI [42]: 4.18 µM
GI50 [43]: 8.79 µM
TGI [43]: > 33 µM
GI50 [8]: 0.365 µM
TGI [8]: 1.84 µM
GI50 [44]: < 0.0332 µM
TGI [44]: 7.26 µM
GI50 [45]: < 0.01 µM
TGI [45]: 0.17 µM
GI50 [46]: < 0.01 µM
TGI [46]: 0.628 µM
GI50 [9]: < 0.01 µM
GI50 [10]: < 0.01 µM
TGI [10]: < 0.01 µM
GI50 [11]: < 0.01 µM
GI50 [12]: < 0.01 µM
TGI [12]: 0.345 µM
GI50 [47]: 0.155 µM
TGI [47]: 13 µM
GI50 [13]: < 0.01 µM
TGI [13]: 2.29 µM
GI50 [48]: 0.887 µM
TGI [48]: 13.6 µM
GI50 [49]: < 0.01 µM
TGI [49]: < 0.018 µM
GI50 [50]: < 0.01 µM
TGI [50]: 0.288 µM
GI50 [51]: 1.55 µM
TGI [51]: > 22.5 µM
GI50 [14]: < 0.01 µM
TGI [14]: 0.207 µM
GI50 [52]: 4.46 µM
TGI [52]: > 100 µM
GI50 [53]: < 0.01 µM
TGI [53]: 1.03 µM
GI50 [54]: 0.218 µM
TGI [54]: 12.7 µM
TGI [55]: > 100 µM
GI50 [56]: 0.838 µM
TGI [56]: 20.7 µM
GI50 [17]: 0.586 µM
TGI [17]: 13.6 µM
GI50 [18]: 0.0377 µM
TGI [18]: 0.724 µM
GI50 [19]: < 0.01 µM
TGI [19]: 0.285 µM
GI50 [57]: < 0.0369 µM
TGI [57]: 0.842 µM
GI50 [20]: < 0.01 µM
TGI [20]: 1.27 µM
GI50 [58]: 0.67 µM
TGI [58]: 23.4 µM
